According to patent publication US20030166528A1, “Antifungal compound” (priority 2000, published 2003):
Where two headings read alike, the source gives them in different places. Non-standard residues stand in square brackets, D forms with d. Residues, ends and D or L forms follow the SMILES beside them. 1Nal = N[C@@H](Cc1cccc2ccccc12)C(=O)O; 2Thi = N[C@@H](Cc1cccs1)C(=O)O; Nva = CCC[C@H](N)C(=O)O

Tests used:
C. albicans SLU-1 [1] = assay type: in vivo, DBA/2 mice
Description: XMP.676 was tested for in vivo antifungal activity in mice with systemic C. albicans infection, as measured by effect on mortality, generally according to Example 4 of U.S. Pat. No. 5,858,974.
Briefly described, DBA/2 mice were inoculated with an IV injection of approximately 7×10^4 CFU C. albicans SLU-1. Desired doses of XMP.676 were prepared from a stock solution of 1 mg/mL XMP.676 in a 0.9% saline solution. Treatment with XMP.676, other antifungal agents or saline via either IV or IP routes was initiated immediately after fungal challenge. Subsequent treatments were administered q.o.d. through day 15. Mortality was recorded daily for 28 days.

Aspergillus fumigatus = assay type: in vivo, mice
Description: XMP.676 was additionally tested in cyclosporin-A (CSA) immunosuppressed mice systemically infected with about 5×10^5 CFU Aspergillus fumigatus. Specifically, mice were immunosuppressed by IP injection of 50 mg/kg CSA at day-1. CSA injections continued daily for 9 consecutive days (to day 8). On Day 0, animals received the second CSA injection immediately followed by an inoculum of A. fumigatus in a 0.25 mL volume via a lateral tail injection. Treatment with XMP.676 began one hour following fungal challenge at doses of 0.3, 1.0, 3.0 or 10.0 mg/kg IP, was repeated one day later, and then continued q.o.d. for a total of 7 treatments (Days 0, 1, 3, 5, 7, 9, 11). One group was treated with saline as a control, and another group received 1.0 mg/kg amphotericin B for comparison. Mortality was recorded for 28 days. […] XMP.676 is also be tested in the absence of immunosuppression with CSA.

[2] = assay type: in vitro ADME; details: for half-life: 37° C., 250 μg/mL, read-out: biological half life
Description: XMP.676 was also tested for stability using a bioassay generally according to Example 5 of U.S. Pat. No. 5,858,974, wherein the peptide is incubated with SDB, RPMI, mouse serum or human serum for varying amounts of time and the resulting serum-treated product is tested for retention of antifungal activity against C. albicans SLU-1 in a FACScan assay as follows.
A solution of XMP.676 (0.5 mg/mL) was mixed with medium or fresh mouse serum or fresh human serum at a 1:1 ratio to make a 250 μg/mL solution. The resulting mixture was incubated at 37° C. Small sample volumes were removed from the incubation mixture at specific times and placed at −20° C.
Antifungal activity of the peptide/serum (or peptide/media) samples was tested as follows. Mid-log phase C. albicans were suspended in SDB at a concentration of about 1×10^6 CFU/ml. The suspension was aliquoted in 1 mL portions into polystyrene tubes. The peptide/serum mixture sample were thawed and 50 μL of each sample was aliquoted into each tube and incubated at 37° C. for various times. The cells were then pelleted and resuspended in a solution of 10 μg/mL propidium iodide/PBS and incubated for 5 minutes. Propidium iodide is a fluorescent exclusionary dye that is only taken up by the cell when cell death has occurred. Cells were analyzed for fluorescence on a FACScan instrument using cells treated with 70% ethanol as the control for 100% death, and untreated cells for zero death.

[3] = assay type: in vivo, rabbits
Description: Increasing doses of various […], or via intraperitoneal injection, to determine the maximum dose of peptide that could be administered without causing observable symptoms such as respiratory distress and loss of righting reflex. […] […] When administered via rapid intravenous injection, doses of XMP.676 higher than 2.5 mg/kg were not well tolerated, but slow injection increased the well tolerated dose two-fold to 5.0 mg/kg. When administered intraperitoneally, XMP.676 was well tolerated at doses up to and including 15.0 mg/kg. […] XMP.676 was also tested in cytarabine-treated conscious rabbits (wherein 30 mg/kg cytarabine was administered intravenously daily for 5 days prior to administration of XMP.676).

[4] = in vivo
C. albicans [5] = assay type: in vivo, mice; details: 5 mg/kg twice daily for 14 days, intraperitoneal; preliminary test
A. fumigatus = assay type: cell-based; details: on A. fumigatus, with tested concentrations of amphotericin-B and itraconazole
Description: (§1) In addition, checkerboard assays were used to evaluate synergy, additivity or antagonism between XMP.676 and fluconazole, amphotericin B or itraconazole. These assays were carried out on both C. albicans and A. fumigatus. Results from these experiments were used to calculate fractional inhibitory concentration (FIC) values. […] At lower concentrations of both compounds, additional synergy may be observed.

C. albicans [6] = assay type: cell-based; details: on C. albicans, with fluconazole and amphotericin-B
Description: as §1

C. albicans SLU-1 [7] = assay type: cell-based; details: radial diffusion assay
Description: XMP.676 was tested for in vitro antifungal activity in radial diffusion assays against C. albicans SLU-1 generally according to Examples 2 and 3 of U.S. Pat. No. 5,858,974.

in vivo = details: DBA/2, mouse, iv, well tolerated dose

CCC[C@H](NC(=O)[C@H](CCC(N)=O)NC(=O)[C@@H](NC(=O)[C@H](CCC)NC(=O)[C@H](Cc1cccc2ccccc12)NC(=O)[C@H](N)CCCCN)[C@@H](C)CC)C(=O)N[C@H](C(=O)N[C@@H](Cc1cccs1)C(=O)N[C@H](CCCCN)C(=O)N[C@H](CCCCN)C(N)=O)C(C)C [XMP.676, LysD-(Naph-1-Ala)-Norvaline-Ile-Gln-Norvaline-Val-(Thienyl-Ala)-LysD-LysD] (H-[dK][1Nal][Nva]IQ[Nva]V[2Thi][dK][dK]-NH2)
reduction in mortality (C. albicans SLU-1 [1]; 0.5 mg/kg IV q.o.d., p<0.001, 28 days): statistically significant reduction in mortality
reduction in mortality (C. albicans SLU-1 [1]; 1.0 mg/kg IV q.o.d., p=0.019, 28 days): reduction in mortality
reduction in mortality (C. albicans SLU-1 [1]; 2.5 mg/kg IV q.o.d., all five experiments (p=0.005, p<0.001, p<0.001, p=0.002, p=0.015)): statistically significant reduction in mortality
reduction in mortality (C. albicans SLU-1 [1]; 5 mg/kg IP q.o.d. or q.d., three of four experiments (p=0.0001, p=0.012, p=0.018)): statistically significant reduction in mortality
protection, slow injection relative to rapid bolus injection (C. albicans SLU-1 [1]; IV, slow (approximately 20 seconds) vs rapid (less than about 5 seconds), 2.5 mg/kg in FIG. 2): greater delay in onset of death and greater protection
benefit of intravenous treatment q.o.d. versus q.d. or b.i.d. (C. albicans SLU-1 [1]; intravenous): greater benefit
reduction in mortality (Aspergillus fumigatus; 1.0 mg/kg IP q.o.d., p=0.0003, 28 days): highly statistically significant reduction in mortality
reduction in mortality (Aspergillus fumigatus; 3.0 mg/kg IP): no reduction in mortality
reduction in mortality (Aspergillus fumigatus; 10.0 mg/kg IP): no reduction in mortality
stability in microbial media ([2]; all types of microbial media examined (SDB, RPMI)): excellent stability
half-life ([2]; human serum): > 3 h
half-life ([2]; mouse serum): > 3 h
adverse events ([3]; 2.5 mg/kg IV, 30 minute single infusion): did not result in any significant adverse events
adverse events ([3]; doses higher than 2.5 mg/kg IV infusion): resulted in mortality
well tolerated dose ([4]; DBA/2, mouse, iv): 5.0 mg/kg
well tolerated doses ([4]; mouse, ip): ≤ 15.0 mg/kg
reduction in mortality compared to saline control (C. albicans [5]): did not provide a reduction in mortality
synergy, additivity or antagonism (FIC) (A. fumigatus): additivity
synergy, additivity or antagonism (FIC) (C. albicans [6]): strong additivity or synergy
lowest minimum inhibitory concentration (MIC) observed (C. albicans SLU-1 [7]): 171 pmol
MTD (in vivo): 2.5 mg/kg
